Assay results as given in patent publication US12516053B2, “Bcl-2 inhibitors” (BEIGENE, LTD., priority 2019, dated 2026).
Where two headings read alike, the source gives them in different places.

Experiments:
[1] = tested on: RS4;11 (BCL-2 dependent acute lymphoblastic leukemia cell line); assay: RS4;11 cell proliferation assay; format: cell-based; details: CellTiter-GLO, read-out: Cellular proliferation assay (IC50, nM) RS4
Protocol: RS4;11 Cell Proliferation Assay:
Each compound was serially diluted with 1 μM as the maximum concentration. To test the apoptotic effect of the compounds, the cells were seeded at 50,000 in 180 μl per well in 96-well plates and treated with 10-point dilution series of each compound for 48 hrs at 37° C. Cell viability was assessed after the treatment using CellTiter-GLO luminescent assay (Promega) according to the manufacturer's recommendations. Briefly, 30 μl of CellTiter-GLO reagent was added into 200 μl of cell culture, Mixture was agitated on an orbital shaker for 5 mins to ensure cell lysis followed by 7 mins incubation at room temperature to allow development and stabilization of luminescent signals, which corresponded to quantity of ATP and thus the quantity of metabolically active cells. Luminescent signals were measured using PHERAstar FS reader (BMG). Mean IC50 values for cell viability were determined with GraphPad Prism software.

BA/F3-BCL-2 cells = BA/F3-BCL-2 cells (Homo sapiens, UniProt P10415); assay: BA/F3 cell proliferation assay, BCL-2 wild type; format: cell-based, Murine; details: 24 hrs treatment, 3% FBS, CellTiter-Glo, geometric mean of 3 experiments; read-out: Cellular proliferation assay (IC50, nM) Bcl-2 WT; BaF3 cell
Protocol: (§1) BA/F3 cell Proliferation Assay:
(§2) The cells were treated with a 10-point dilution series of compounds for 24 hrs. After the compound treatment, 30 μl of CellTiter-Glo reagent was added in each well. The effects on proliferation were determined using Cell TiterGlo reagent (Promega) according to the manufacturer's instructions. Luminescent signals were measured using PHERAstar FS plate reader (BMG Labtech). ICS50 values for cell viability were determined with GraphPad Prism software and were the geometric mean of 3 independent experiments.

[2] = biological target: recombinant human Bcl-2-G101V protein (Homo sapiens, UniProt P10415, G101V); assay: Bcl-2-G101V TR-FRET assay; format: binding; details: TR-FRET, 0.1 nM Bcl-2-G101V, FITC labeled Bak peptide 5 nM; read-out: Biochemical assay (IC50, nM) Bcl-2 G101V
From the text: The IC50 for each compound was derived from fitting the data to the four-parameter logistic equation by Graphpad Prism software or Dotmatics.

[3] = biological target: Recombinant human Bcl-2 protein (Homo sapiens, UniProt P10415); assay: Bcl-2 TR-FRET assay; format: binding; details: TR-FRET, 0.05 nM Bcl-2, FITC labeled Bak peptide 0.5 nM; read-out: Biochemical assay (IC50, nM) Bcl-2 WT
Protocol: Compounds disclosed herein were tested for blocking of Bcl-2 protein with its ligand in an assay based on Time-Resolved Fluorescence Resonance Energy Transfer (TR-FRET) methodology. Recombinant human 0.05 nM Bcl-2 protein was pre-incubated with a serial dilution of compounds disclosed herein (top final concentration is 1 uM or 0.1 uM or 0.02 uM or 0.01 uM, 10 points) at room temperature for 0.5 hour in an assay buffer containing 20 mM potassium phosphate buffer, pH 7.5, 50 mM NaCl, 1 mM EDTA, 0.05% Tween-20, 0.01% BSA. […] The inhibition percentage of Bcl-2 interaction with its ligand in presence of increasing concentrations of compounds was calculated based on the TR-FRET signals. The IC50 for each compound was derived from fitting the data to the four-parameter logistic equation by Graphpad Prism software or Dotmatics.

BA/F3-BCL-2 G101V cells = BA/F3-BCL-2 G101V cells (Homo sapiens, UniProt P10415, G101V, cells depend on it); assay: BA/F3 cell proliferation assay, Bcl-2 G101V; format: cell-based, Murine; details: 24 hrs treatment, 3% FBS, CellTiter-Glo, geometric mean of 3 experiments; read-out: Cellular proliferation assay (IC50, nM) Bcl-2 G101V; BaF3 cell
Protocol: as §1, §2

[4] = tested on: Molt-4 (Bcl-xL-dependent ALL cell line); assay: Molt-4 cell proliferation assay; format: cell-based; details: CellTiter-GLO, read-out: Cellular proliferation assay (IC50, nM) Molt-4
From the text: Molt-4 Cell Proliferation Assay:
Each compound was serially diluted with 10 1M as the maximum concentration. The anti-proliferative IC50s of these compounds were similarly determined as a percentage of viable cells upon treatment compared to the untreated control using CellTiter-GLO luminescent assay.

[5] = Homo sapiens, RS4-11, 48 hrs treatment

Compound: 2-(2,3-dihydropyrrolo[3′,2′:56]pyrido[2,3-b][1,4]oxazin-1(6H)-yl)-N-((4-((((1r,4r)-4-hydroxy-4-methylcyclohexyl)methyl)amino)-3-nitrophenyl)sulfonyl)-4-(2-((S)-2-(2-isopropylphenyl)pyrrolidin-1-yl)-7-azaspiro[3,5]nonan-7-yl)benzamide [Example B3]
- IC50 ([1]; 48 hrs treatment): 1.1 nM
- IC50 (BA/F3-BCL-2 cells): 1.1 nM
- IC50 [2]: 0.94 nM
- IC50 [3]: 0.063 nM
- GI50 (BA/F3-BCL-2 G101V cells): 10.8 nM
- IC50 [4]: 4540 nM

Compound: CC(C)c1ccccc1[C@@H]1CCCN1C1CC2(CCN(c3ccc(C(=O)NS(=O)(=O)c4cc5c(c([N+](=O)[O-])c4)N[C@H](C[C@H]4CC[C@H](O)CC4)CO5)c(Oc4cnc5[nH]ccc5c4)c3)CC2)C1 [Example A4, 2-((1H-pyrrolo[2,3-b]pyridin-5-yl)oxy)-N—(((R)-3-(((1R,4R)-4-hydroxycyclohexyl)methyl)-5-nitro-3,4-dihydro-2H-benzo[b][1,4]oxazin-7-yl)sulfonyl)-4-(2-((S)-2-(2-isopropylphenyl)pyrrolidin-1-yl)7-azaspiro[3,5]nonan-7-yl)benzamide]
- IC50 [1, 5]: 0.47 nM
- IC50 (BA/F3-BCL-2 cells): 0.3 nM
- IC50 [2]: 0.86 nM
- IC50 [3]: 0.025 nM
- GI50 (BA/F3-BCL-2 G101V cells): 9.8 nM
- IC50 ([4]; Homo sapiens, MOLT-4): > 10000 nM

Compound: CC(C)c1ccccc1[C@@H]1CCCN1C1CC2(CCN(c3ccc(C(=O)NS(=O)(=O)c4cc5c(c([N+](=O)[O-])c4)N[C@H](C[C@H]4CC[C@@H](O)CC4)CO5)c(Oc4cnc5[nH]ccc5c4)c3)CC2)C1 [Example A5, 2-((1H-pyrrolo[2,3-b]pyridin-5-yl)oxy)-N—(((R)-3-(((1s,4S)-4-hydroxycyclohexyl)methyl)-5-nitro-3,4-dihydro-2H-benzo[b][1,4]oxazin-7-yl)sulfonyl)-4-(2-((S)-2-(2-isopropylphenyl)pyrrolidin-1-yl)-7-azaspiro[3,5]nonan-7-yl)benzamide]
- IC50 [1, 5]: 1 nM
- IC50 (BA/F3-BCL-2 cells): 0.41 nM
- IC50 [2]: 0.83 nM
- IC50 [3]: 0.024 nM
- GI50 (BA/F3-BCL-2 G101V cells): 7.5 nM
- IC50 ([4]; Homo sapiens, MOLT-4): 5160 nM

Compound: CC(C)c1ccccc1[C@@H]1CCCN1C1CC2(CCN(c3ccc(C(=O)NS(=O)(=O)c4ccc(NC[C@H]5CC[C@](C)(O)CC5)c([N+](=O)[O-])c4)c(N4CCCOc5nc6[nH]ccc6cc54)c3)CC2)C1 [Example B1]
- IC50 [1, 5]: 1.7 nM
- IC50 (BA/F3-BCL-2 cells): 1 nM
- IC50 [2]: 1.9 nM
- IC50 [3]: 0.04 nM
- GI50 (BA/F3-BCL-2 G101V cells): 15.5 nM
- IC50 ([4]; Homo sapiens, MOLT-4): 6730 nM

Compound: CC(C)c1ccccc1[C@@H]1CCCN1C1CC2(CCN(c3ccc(C(=O)NS(=O)(=O)c4ccc(NCC5(F)CCOCC5)c([N+](=O)[O-])c4)c(N4CCCOc5nc6[nH]ccc6cc54)c3)CC2)C1 [Example B2, (S)-2-(3,4-dihydro-2H-pyrrolo[3′,2′:5,6]pyrido[2,3-b][1,4]oxazepin-1(7H)-yl)-N-((4-(((4-fluorotetrahydro-2H-pyran-4-yl)methyl)amino)-3-nitrophenyl)sulfonyl)-4-(2-(2-(2-isopropylphenyl)pyrrolidin 1-yl)-7-azaspiro[3,5]nonan-7-yl)benzamide]
- IC50 [1, 5]: 1.7 nM
- IC50 (BA/F3-BCL-2 cells): 0.82 nM
- IC50 [2]: 1.8 nM
- IC50 [3]: 0.05 nM
- GI50 (BA/F3-BCL-2 G101V cells): 7.8 nM
- IC50 ([4]; Homo sapiens, MOLT-4): 5560 nM

Compound: CC(C)c1ccccc1[C@@H]1CCCN1C1CC2(C1)CN(c1ccc(C(=O)NS(=O)(=O)c3ccc(NC[C@H]4CC[C@](C)(O)CC4)c([N+](=O)[O-])c3)c(N3CCOc4nc5[nH]ccc5cc43)c1)C2 [Example B11, 2-(2,3-dihydropyrrolo[3′,2′:5,6]pyrido[2,3-b][1,4]oxazin-1(6H)-yl)-N-((4-((((1R,4R)-4-hydroxy-4-methylcyclohexyl)methyl)amino)-3-nitrophenyl)sulfonyl)-4-(6-((S)-2-(2-isopropylphenyl)pyrrolidin-1-yl)-2-azaspiro[3.3]heptan-2-yl)benzamide]
- IC50 [1, 5]: 3.2 nM
- IC50 [2]: 2.8 nM
- IC50 [3]: 0.041 nM
- IC50 ([4]; Homo sapiens, MOLT-4): > 10000 nM

Compound: CC(C)c1ccccc1[C@@H]1CCCN1C1CC2(C1)CN(c1ccc(C(=O)NS(=O)(=O)c3ccc(NCC4(F)CCOCC4)c([N+](=O)[O-])c3)c(N3CCOc4nc5[nH]ccc5cc43)c1)C2 [Example B12, (S)-2-(2,3-dihydropyrrolo[3′,2′:5,6]pyrido[2,3-b][1,4]oxazin-1(6H)-yl)-N-((4-(((4-fluorotetrahydro-2H-pyran-4-yl)methyl)amino)-3-nitrophenyl)sulfonyl)-4-(6-(2-(2-isopropylphenyl)pyrrolidin-1-yl)-2-azaspiro[3.3]heptan-2-yl)benzamide]
- IC50 [1, 5]: 3.6 nM
- IC50 [2]: 3.7 nM
- IC50 [3]: 0.058 nM
- IC50 ([4]; Homo sapiens, MOLT-4): 7310 nM

Compound: CC(C)c1ccccc1[C@@H]1CCCN1C1CC2(C1)CN(c1ccc(C(=O)NS(=O)(=O)c3ccc(NC[C@H]4CC[C@](C)(O)CC4)c([N+](=O)[O-])c3)c(N3CCCOc4nc5[nH]ccc5cc43)c1)C2 [Example B13, 2-(3,4-dihydro-2H-pyrrolo[3′,2′:5,6]pyrido[2,3-b][1,4]oxazepin-1(7H)-yl)-N-((4-((((1r,4r)-4-hydroxy-4-methylcyclohexyl)methyl)amino)-3-nitrophenyl)sulfonyl)-4-(6-((S)-2-(2-isopropylphenyl)pyrrolidin-1-yl)-2-azaspiro[3,3]heptan-2-yl)benzamide]
- IC50 [1, 5]: 5.5 nM
- IC50 (BA/F3-BCL-2 cells): 2.8 nM
- IC50 [2]: 2.4 nM
- IC50 [3]: 0.094 nM
- GI50 (BA/F3-BCL-2 G101V cells): 39.1 nM
- IC50 ([4]; Homo sapiens, MOLT-4): > 10000 nM

Compound: CC(C)c1ccccc1[C@@H]1CCCN1C1CC2(C1)CN(c1ccc(C(=O)NS(=O)(=O)c3ccc(NCC4(F)CCOCC4)c([N+](=O)[O-])c3)c(N3CCCOc4nc5[nH]ccc5cc43)c1)C2 [Example B14, (S)-2-(3,4-dihydro-2H-pyrrolo[3′,2′:5,6]pyrido[2,3-b][1,4]oxazepin-1(7H)-yl)-N-((4-(((4-fluorotetrahydro-2H-pyran-4-yl)methyl)amino)-3-nitrophenyl)sulfonyl)-4-(6-(2-(2-isopropylphenyl)pyrrolidin-1-yl)-2-azaspiro[3.3]heptan-2-yl)benzamide]
- IC50 [1, 5]: 4.8 nM
- IC50 (BA/F3-BCL-2 cells): 2.4 nM
- IC50 [2]: 3.1 nM
- IC50 [3]: 0.11 nM
- GI50 (BA/F3-BCL-2 G101V cells): 26.5 nM
- IC50 ([4]; Homo sapiens, MOLT-4): > 10000 nM

Compound: CC(C)c1ccccc1[C@@H]1CCCN1C1CC2(C1)CN(c1ccc(C(=O)NS(=O)(=O)c3ccc(NC[C@H]4COCCO4)c([N+](=O)[O-])c3)c(N3CCCOc4nc5[nH]ccc5cc43)c1)C2 [Example B15, N-((4-((((S)-1,4-dioxan-2-yl)methyl)amino)-3-nitrophenyl)sulfonyl)-2-(3,4-dihydro-2H-pyrrolo[3′,2′:5,6]pyrido[2,3-b][1,4]oxazepin-1(7H)-yl)-4-(6-((S)-2-(2-isopropylphenyl)pyrrolidin-1-yl)-2-azaspiro[3,3]heptan-2-yl)benzamide]
- IC50 [1, 5]: 8 nM
- IC50 [2]: 5.2 nM
- IC50 [3]: 0.14 nM
- IC50 ([4]; Homo sapiens, MOLT-4): > 10000 nM
